According to patent publication US20090203697A1, “HETEROCYCLIC TYPE CINNAMIDE DERIVATIVE” (priority 2006, published 2009):

system: Aβ42 production; experiment: Quantification of Aβ peptide in neuronal culture from rat fetus brain (Aβ ELISA); type: cell-based; settings: 72 h; rat primary neuronal culture (cerebral cortex, embryonic day 18 Wistar rats); medium collected three days after addition of the compound; Aβx-42 ELISA; read-out: Aβ42 production reducing effect IC50
Experimental: Quantification of Aβ Peptide in Neuronal Culture from Rat Fetus Brain
(1) Rat Primary Neuronal Culture
Primary neuronal cultures were prepared from the cerebral cortex of embryonic day 18 Wistar rats (Charles River Japan, Yokohama, Japan). Specifically, the embryos were aseptically removed from pregnant rats under ether anesthesia. The brain was isolated from the embryo and immersed in an ice-cold L-15 medium (such as Invitrogen Corp. Cat #11415-064, Carlsbad, Calif., USA, or SIGMA L1518). The cerebral cortex was collected from the isolated brain under a stereoscopic microscope. The cerebral cortex fragments collected were enzymatically treated in an enzyme solution containing 0.25% trypsin (Invitrogen Corp. Cat #15050-065, Carlsbad, Calif., USA) and 0.01% DNase (Sigma D5025, St. Louis, Mo., USA) at 37° C. for 30 minutes to disperse the cells. Here, the enzymatic reaction was stopped by adding inactivated horse serum to the solution. The enzymatically treated solution was centrifuged at 1,500 rpm for five minutes to remove the supernatant. 5 to 10 ml of a medium was added to the resulting cell mass. Neurobasal medium (Invitrogen Corp. Cat #21103-049, Carlsbad, Calif., USA) supplemented with 2% B27 supplement (Invitrogen Corp. Cat #17504-044, Carlsbad, Calif., USA), 25 μM 2-mercaptoethanol (2-ME, WAKO Cat #139-06861, Osaka, Japan), 0.5 mM L-glutamine (Invitrogen Corp. Cat #25030-0817 Carlsbad, Calif., USA), and Antibiotics-Antimycotics (Invitrogen Corp. Cat #15240-062, Carlsbad, Calif., USA) was used as the medium (Neurobasal/B27/2-ME). However, the above Neurobasal medium not supplemented with 2-ME (Neurobasal/B27) was used for the assay. The cells were redispersed by mild pipetting of the cell mass to which the medium was added. The cell dispersion was filtered through a 40-μm nylon mesh (Cell Strainer, Cat #35-2340, Becton Dickinson Labware, Franklin Lakes, N.J., USA) to remove the remaining cell mass, and thus a neuronal cell suspension was obtained. The neuronal cell suspension was diluted with the medium and then plated in a volume of 100 μl/well at an initial cell density of 5×10^5 cells/cm^2 in a 96-well polystyrene culture plate pre-coated with poly-L or D-lysine (Falcon Cat #35-3075, Becton Dickinson Labware, Franklin Lakes, N.J., USA coated with poly-L-lysine using the method shown below, or BIOCOAT™ cell environments Poly-D-lysine cell ware 96-well plate, Cat #35-6461, Becton Dickinson Labware, Franklin Lakes, N.J., USA). Poly-L-lysine coating was carried out as follows. 100 μg/ml of a poly-L-lysine (SIGMA P2636, St. Louis, Mo., USA) solution was aseptically prepared with a 0.15 M borate buffer. (pH 8.5). […] of the solution was added to the 96-well polystyrene culture plate and incubated at room temperature for one or more hours or at 4° C. overnight or longer. The coated 96-well polystyrene culture plate was washed with sterile water four or more times, and then dried or rinsed with, for example, sterile PBS or medium, and used for cell plating. The plated cells were cultured in the culture plate at 37° C. in 5% CO2-95% air for one day. Then, the total amount of the medium was replaced with a fresh Neurobasal™/B27/2-ME medium, and then the cells were cultured for further three days.
The drug was added to the culture plate on Day 4 of culture as follows. The total amount of the medium was removed from the wells, and 180 μl/well of Neurobasal medium not containing 2-ME and containing 2% B-27 (Neurobasal/B27) was added thereto. A solution of the test compound in dimethyl sulfoxide (hereinafter abbreviated as DMSO) was diluted with Neurobasal/B27 to a concentration 10-fold higher than the final concentration. 20 μl/well of the dilution was added to and sufficiently mixed with the medium. The final DMSO concentration was 1% or less. Only DMSO was added to the control group.
The cells were cultured for three days after addition of the compound, and the total amount of the medium was collected. […]

**Q.** Which IC50 does the source give for COc1cc(/C=C2\CCCN([C@@H](C)c3cc(F)c(F)c(F)c3)C2=O)ccc1-n1cnc(C)n1 [Example 6, (E)-3-[1-[3-methoxy-4-(3-methyl[1,2,4]triazol-1-yl)phenyl]methylidene]-1-[(S)-1-(3,4,5-trifluorophenyl)ethyl]piperidin-2-one] here?
**A.** 320 nM

**Q.** Which IC50 does the source give for COc1cc(/C=C2\O[C@@H](C)CN(C(C)(C)c3ccc(F)cc3)C2=O)ccc1-n1cnc(C)n1 [Example 17, (Z)-(6S)-4-[1-(4-fluorophenyl)-1-methylethyl]-2-[1-[3-methoxy-4-(3-methyl[1,2,4]triazol-1-yl)phenyl]methylidene]-6-methylmorpholin-3-one] here?
**A.** 180 nM

**Q.** COc1cc(/C=C2\O[C@@H](C)CN([C@H](c3cc(F)c(F)c(F)c3)[C@@H](C)O)C2=O)ccc1-n1cnc(C)n1 [Example 18, (Z)-(6S)-4-[(1R,2R)-2-hydroxy-1-(3,4,5-trifluorophenyl)propyl]-2-[1-[3-methoxy-4-(3-methyl[1,2,4]triazol-1-yl)phenyl]methylidene]-6-methylmorpholin-3-one] was tested. Which IC50 did it give?
**A.** 160 nM

**Q.** COc1cc(/C=C2\OC(C)(C)CN([C@H](c3cc(F)c(F)c(F)c3)[C@@H](C)O)C2=O)ccc1-n1cnc(C)n1 [Example 19, (Z)-4-[(1R,2R)-2-hydroxy-1-(3,4,5-trifluorophenyl)propyl]-2-[1-[3-methoxy-4-(3-methyl[1,2,4]triazol-1-yl)phenyl]methylidene]-6,6-dimethylmorpholin-3-one] was tested. Which IC50 did it give?
**A.** 150 nM

**Q.** With COc1cc(/C=C2\OCCN([C@H](c3cc(F)c(F)c(F)c3)[C@@H](C)O)C2=O)ccc1-n1cnc(C)n1 [Example 20, (Z)-4-[(1R,2R)-2-hydroxy-1-(3,4,5-trifluorophenyl)propyl]-2-[1-[3-methoxy-4-(3-methyl[1,2,4]triazol-1-yl)phenyl]methylidene]morpholin-3-one] as the compound, how does the IC50 read?
**A.** 210 nM

**Q.** For COc1cc(/C=C2\CCCN([C@H](c3cc(F)c(F)c(F)c3)[C@@H](C)O)C2=O)ccc1-n1cnc(C)n1 [Example 21, (E)-1-[(1R,2R)-2-hydroxy-1-(3,4,5-trifluorophenyl)propyl]-3-[1-[3-methoxy-4-(3-methyl[1,2,4]triazol-1-yl)phenyl]methylidene]piperidin-2-one], which IC50 is on record?
**A.** 60 nM

**Q.** COc1cc(/C=C2\CCCN([C@H](c3ccc(F)cc3)[C@@H](C)O)C2=O)ccc1-n1cnc(C)n1 [Example 22, (E)-1-[(1R,2R)-1-(4-fluorophenyl)-2-hydroxypropyl]-3-{1-[3-methoxy-4-(3-methyl[1,2,4]triazol-1-yl)phenyl]methylidene}piperidin-2-one] was tested. Which IC50 did it give?
**A.** 50 nM

**Q.** For COc1cc(/C=C2\OC(C)(C)CN([C@H](c3ccc(F)cc3)[C@@H](C)O)C2=O)ccc1-n1cnc(C)n1 [Example 23, (Z)-4-[(1R,2R)-1-(4-fluorophenyl)-2-hydroxypropyl]-2-[1-[3-methoxy-4-(3-methyl[1,2,4]triazol-1-yl)phenyl]methylidene]-6,6-dimethylmorpholin-3-one], which IC50 is on record?
**A.** 400 nM

**Q.** For COc1cc(/C=C2\O[C@@H](C)CN([C@H](c3ccc(F)cc3)[C@@H](C)O)C2=O)ccc1-n1cnc(C)n1 [Example 24, (6S)-(Z)-4-[(1R,2R)-1-(4-fluorophenyl)-2-hydroxypropyl]-2-[1-[3-methoxy-4-(3-methyl[1,2,4]triazol-1-yl)phenyl]methylidene]-6-methylmorpholin-3-one], which IC50 is on record?
**A.** 290 nM

**Q.** With COc1cc(/C=C2\CC[C@H]3CC[C@@H](c4ccc(F)c(F)c4)N3C2=O)ccc1-n1cnc(C)n1 [Example 26, (E)-(3S,8aS)-3-(3,4-difluorophenyl)-6-[3-methoxy-4-(3-methyl[1,2,4]triazol-1-yl)benzylidene]hexahydroindolizin-5-one] as the compound, how does the IC50 read?
**A.** 380 nM

**Q.** COc1cc(/C=C2\CC(C)(C)CN([C@@H](C)c3ccc(F)cc3)C2=O)ccc1-n1cnc(C)n1 [Example 27, (E)-1-[(S)-1-(4-fluorophenyl)ethyl]-3-[1-[3-methoxy-4-(3-methyl[1,2,4]triazol-1-yl)phenyl]methylidene]-5,5-dimethylpiperidin-2-one] was tested. Which IC50 did it give?
**A.** 270 nM

**Q.** For COc1cc(/C=C2\CC[C@H]3CCC[C@@H](c4ccc(F)cc4)N3C2=O)ccc1-n1cnc(C)n1 [Example 28, (E)-(6S,9aR)-6-(4-fluorophenyl)-3-{1-[3-methoxy-4-(3-methyl[1,2,4]triazol-1-yl)phenyl]methylidene}octahydroquinolizin-4-one], which IC50 is on record?
**A.** 440 nM
